US20230339890A1, “AMINO ALCOHOL COMPOUNDS AND USES THEREOF” (Kineta, Inc., priority 2020, published 2023)

What follows are molecules tested against Recombinant human CYP51A1 (lanosterol-14a-demethylase) (Homo sapiens (Human), UniProt Q16850) (assay: Inhibition of CYP51A1, fluorescent substrate BOMCC). Settings: recombinant human CYP51A1 coexpressed with CYP reductase in bacterial membranes, 8-point concentration-response, read-out: CYP51 IC50.
Type: biochemical
Description: Method: Recombinant human CYP51A1 (lanosterol-14a-demethylase) enzyme was coexpressed with CYP reductase in bacterial membranes and the fluorescent substrate BOMCC (a nonnatural substrate that causes increases in fluorescence upon CYP51A1-dependent demethylation) was used to obtain 8-point dose concentration-response curves for each compound.

Chain of Recombinant human CYP51A1 (lanosterol-14a-demethylase) (Q16850 whole entry): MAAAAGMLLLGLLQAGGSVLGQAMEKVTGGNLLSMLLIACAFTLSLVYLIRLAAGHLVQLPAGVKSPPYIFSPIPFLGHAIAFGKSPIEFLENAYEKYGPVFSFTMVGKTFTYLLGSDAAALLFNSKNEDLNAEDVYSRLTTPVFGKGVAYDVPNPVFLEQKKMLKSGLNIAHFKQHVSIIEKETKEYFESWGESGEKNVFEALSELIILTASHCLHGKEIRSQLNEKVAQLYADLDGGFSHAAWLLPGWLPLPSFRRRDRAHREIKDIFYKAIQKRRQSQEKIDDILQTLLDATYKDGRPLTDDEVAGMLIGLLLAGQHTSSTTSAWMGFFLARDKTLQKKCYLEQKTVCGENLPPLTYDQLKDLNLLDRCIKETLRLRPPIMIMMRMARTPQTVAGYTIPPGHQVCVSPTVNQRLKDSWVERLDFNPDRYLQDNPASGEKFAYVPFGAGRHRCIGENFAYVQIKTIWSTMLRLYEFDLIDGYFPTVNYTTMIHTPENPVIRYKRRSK

| SMILES | IC50 [nM] |
| --- | --- |
| CC1(CN(C[C@@H](O)c2cccnc2)C(=O)Cc2ccc(C(F)(F)F)nc2)CC1 [compound 76, N-[(2S)-2-hydroxy-2-(3-pyridyl)ethyl]-N-[(1-methylcyclopropyl)methyl]-2-[6-(trifluoromethyl)-3-pyridyl]acetamide] | ≤ 100 |
| CCCN(C[C@H](O)c1cccnc1)C(=O)Cc1ccc(Cl)c(Cl)c1 [compound 6, 2-(3,4-dichlorophenyl)-N-[(2R)-2-hydroxy-2-(3-pyridyl)ethyl]-N-propyl-acetamide] | ≤ 100 |
| CCCN(C[C@@H](O)c1cccnc1)C(=O)C1Cc2cc(Cl)c(Cl)cc2C1 [compound 11] | ≤ 100 |
| CC(C)N(C[C@@H](O)c1cccnc1)C(=O)Nc1ccc(Cl)c(Cl)c1 [compound 29, 3-(3,4-dichlorophenyl)-1-[(2S)-2-hydroxy-2-(3-pyridyl)ethyl]-1-isopropyl-urea] | > 1000 |
| CCCN(C[C@@H](O)c1cccnc1)C(=O)Cc1ccc(C)c(Cl)c1 [compound 16, 2-(3-chloro-4-methyl-phenyl)-N-[(2S)-2-hydroxy-2-(3-pyridyl)ethyl]-N-propyl-acetamide] | ≤ 100 |
| CCCN(CC(O)c1cccnn1)C(=O)Cc1ccc(C#N)c(Cl)c1 (single isomer, unassigned) [compound 54, 2-(3-chloro-4-cyanophenyl)-N-(2-hydroxy-2-pyridazin-3-yl-ethyl)-N-propyl-acetamide] | > 1000 |
| CCCN(CC(O)c1cccnc1)C(=O)Cc1ccc(Cl)c(C)n1 (stereo not shown) [compound 63, 2-(5-chloro-6-methyl-2-pyridyl)-N-[2-hydroxy-2-(3-pyridyl)ethyl]-N-propyl-acetamide] | > 1000 |
| CCCN(CC(O)c1cccnn1)C(=O)Cc1ccc(Cl)c(Cl)c1 (single isomer, unassigned) [compound 35, 2-(3,4-dichlorophenyl)-N-[2-hydroxy-2-pyridazin-3-yl-ethyl]-N-propyl-acetamide] | 100 to 1000 |
| CCCN(C[C@@H](O)c1cccnc1)C(=O)Cc1cnc(C(F)(F)F)nc1 [compound 124, N-[(2S)-2-hydroxy-2-(3-pyridyl)ethyl]-N-propyl-2-[2-(trifluoromethyl)pyrimidin-5-yl]acetamide] | ≤ 100 |
| CCCN(C[C@@H](O)c1cccnc1)C(=O)Cc1ccc(C(F)(F)F)c(F)c1 [compound 105, 2-[3-fluoro-4-(trifluoromethyl)phenyl]-N-[(2S)-2-hydroxy-2-(3-pyridyl)ethyl]-N-propyl-acetamide] | ≤ 100 |
| CCCN(CC(O)c1cccnc1)S(=O)(=O)Cc1ccc(Cl)c(Cl)c1 (stereo not shown) [compound 10, 1-(3,4-dichlorophenyl)-N-[2-hydroxy-2-(3-pyridyl)ethyl]-N-propyl-methanesulfonamide] | > 1000 |
| CCCN(C[C@@H](O)c1cccnc1)C(=O)Cc1ccc(Cl)cn1 [compound 14, 2-(5-chloro-2-pyridyl)-N-[(2S)-2-hydroxy-2-(3-pyridyl)ethyl]-N-propyl-acetamide] | > 1000 |
| CCC(=O)N(C[C@H](O)c1cccnc1)C1Cc2cc(Cl)c(Cl)cc2C1 [compound 23, N-(5,6-dichloroindan-2-yl)-N-[(2R)-2-hydroxy-2-(3-pyridyl)ethyl]propanamide] | ≤ 100 |
| CCCN(C[C@@H](O)c1cccnc1)C(=O)Cc1ccc(F)cn1 [compound 108, 2-(5-fluoro-2-pyridyl)-N-[(2S)-2-hydroxy-2-(3-pyridyl)ethyl]-N-propyl-acetamide] | > 1000 |
| CC(C)N(C[C@@H](O)c1cccnc1)C(=O)Cc1cnc(C(F)(F)F)nc1 [compound 94, N-[(2S)-2-hydroxy-2-(3-pyridyl)ethyl]-N-isopropyl-2-[2-(trifluoromethyl)pyrimidin-5-yl]acetamide] | 100 to 1000 |
| CCCN(C[C@@H](O)c1cccnc1)C(=O)Cc1cnc(C(C)(C)C)nc1 [compound 130, 2-(2-tert-butylpyrimidin-5-yl)-N-[(2S)-2-hydroxy-2-(3-pyridyl)ethyl]-N-propyl-acetamide] | ≤ 100 |

| SMILES | IC50 [nM] |
| --- | --- |
| CCC(=O)N(C[C@@H](O)c1cccnc1)C1Cc2cc(Cl)c(Cl)cc2C1 [compound 22, N-(5,6-dichloroindan-2-yl)-N-[(2S)-2-hydroxy-2-(3-pyridyl)ethyl]propanamide] | 100 to 1000 |
| CCCN(C[C@@H](O)c1cccnc1)C(=O)C1Cc2ccc(Cl)c(Cl)c2C1 (stereo partly drawn) [compound 120, 4,5-dichloro-N-[(2S)-2-hydroxy-2-(3-pyridyl)ethyl]-N-propyl-indane-2-carboxamide] | ≤ 100 |
| CCCN(CC(O)c1cccnn1)C(=O)Cc1ccc(Cl)c(Cl)c1 (single isomer, unassigned) [compound 36, 2-(3,4-dichlorophenyl)-N-[2-hydroxy-2-pyridazin-3-yl-ethyl]-N-propyl-acetamide] | > 1000 |
| O=C(Cc1ccc(Cl)c(Cl)c1)N(C[C@@H](O)c1cccnc1)C1COC1 [compound 26, 2-(3,4-dichlorophenyl) -N-[(2S)-2-hydroxy-2-(3-pyridyl)ethyl]-N-(oxetan-3-yl)acetamide] | 100 to 1000 |
| CCCN(CC(O)c1cccnc1)C(=O)C(C)c1ccc(Cl)c(Cl)c1 (stereo not shown) [compound 117, 2-(3,4-dichlorophenyl)-N-[2-hydroxy-2-(3-pyridyl)ethyl]-N-propyl-propanamide] | > 1000 |
| COC(=O)N(CCc1ccc(C(F)(F)F)nc1)CC(O)c1cccnn1 (stereo not shown) [compound 51] | > 1000 |
| CC(C)(C)OC(=O)NCCCCCN(CC(O)c1cccnc1)C(=O)Cc1ccc(Cl)c(Cl)c1 (stereo not shown) [compound 139, tert-butyl N-[5-[[2-(3,4-dichlorophenyl)acetyl]-[2-hydroxy-2-(3-pyridyl)ethyl]amino]pentyl]carbamate] | ≤ 100 |
| O=C(Cc1ccc(C(F)(F)F)nc1)N(CC1COC1)C[C@@H](O)c1cccnc1 [compound 73, N-[(2S)-2-hydroxy-2-(3-pyridyl)ethyl]-N-(oxetan-3-ylmethyl)-2-[6-(trifluoromethyl)-3-pyridyl]acetamide] | 100 to 1000 |
| CC(C)(C)OC(=O)N(CCc1ccc(Cl)c(Cl)c1)CC(O)c1cccnc1 (stereo not shown) [compound 138, Tert-butyl N-[2-(3,4-dichlorophenyl)ethyl] -N-[2-hydroxy-2-(3-pyridyl)ethyl]carbam ate] | 100 to 1000 |
| CCCN(CC(O)c1cncnc1)C(=O)Cc1ccc(Cl)c(Cl)c1 (stereo not shown) [compound 13, 2-(3,4-dichlorophenyl)-N-(2-hydroxy-2-pyrimidin-5-yl-ethyl)-N-propyl-acetamide] | > 1000 |
| CCCN(C[C@@H](O)c1cccnc1)C(=O)Cc1ccc(C)c(C)c1 [compound 99, 2-(3,4-dimethylphenyl)-N-[(2S)-2-hydroxy-2-(3-pyridyl)ethyl]-N-propyl-acetamide] | 100 to 1000 |
| CCC(=O)N(CCc1ccc(C(F)(F)F)nc1)CC(O)c1cccnn1 (stereo not shown) [compound 49] | > 1000 |
| CCCN(CC(O)c1ccc(=O)[nH]c1)C(=O)Cc1ccc(Cl)c(Cl)c1 (stereo not shown) [compound 115, 2-(3,4-dichlorophenyl)-N-[2-hydroxy-2-(6-oxo-1 H-pyridin-3-yl)ethyl]-N-propyl-acetamide] | > 1000 |
| CCCN(CC(O)c1cnccn1)C(=O)C1Cc2cc(Cl)c(Cl)cc2C1 (stereo not shown) [compound 129] | 100 to 1000 |
| CCCN(C(=O)Cc1ccc(Cl)c(Cl)c1)C(CO)c1ccc(=O)n(C)c1 (stereo not shown) [compound 122, 2-(3,4-dichlorophenyl)-N-[2-hydroxy-1-(1-methyl-6-oxo-3-pyridyl)ethyl]-N-propyl-acetamide] | > 1000 |
